Measurements from patent US12629348B2, “Method and composition for treating osteoarthritis” (Vireo Systems, Inc., priority 2013, dated 2026).
Entries after “also recorded” stand apart in the source; their conditions may differ.

Experiments:
[1] = tested on: PGE2; assay: Plasma PGE2 (PGE2 metabolite competitive EIA) in OA canines; assay type: in vivo, canine; details: 36 mg/kg/day oral
Procedure: The double-blind study was performed on a total of 30 adult canines of various breeds in five different private practice clinics. Owner consent was obtained prior to participation in the study. Each clinic was responsible for enrolling 6 canines into the study. Inclusion criteria for the study consisted of clinical assessment and radiograph confirmation of OA in at least one joint and a score of 22 or greater on the Helsinki chronic pain index (“HCPI”). Use of NSAIDs or other dietary supplements for OA were allowed, provided the current treatment regimens had not been altered for a period of at least three months. […]
In addition to the standard blood chemistry profile, blood samples taken before and at the conclusion of the two-week trial period were analyzed for PGE2 and SAA. […] Both plasma and serum samples were centrifuged at 2000×g for 10 minutes and the plasma and serum supernatants removed and frozen at […] until analyzed for PGE2 and SAA using enzyme-linked immunosorbent assays (“HA”). […] Plasma samples were analyzed for PGE2 using the bicycle PGE2 competitive EIA kit purchased from Cayman Chemical (Ann Arbor, MI). The assay converts PGE2 metabolites into a stable derivative that is measured using EIA. Samples (100 μl) were analyzed in triplicate and PGE2 concentrations determined by use of standard curve. […]

[2] = tested on: canines having OA; assay: Double-blind randomized trial in OA canines: daily activity by pedometer; assay type: in vivo, canine; details: 36 mg/kg/day oral
Procedure: The double-blind study was performed on a total of 30 adult canines of various breeds in five different private practice clinics. Owner consent was obtained prior to participation in the study. Each clinic was responsible for enrolling 6 canines into the study. Inclusion criteria for the study consisted of clinical assessment and radiograph confirmation of OA in at least one joint and a score of 22 or greater on the Helsinki chronic pain index (“HCPI”). Use of NSAIDs or other dietary supplements for OA were allowed, provided the current treatment regimens had not been altered for a period of at least three months. […] Canines participating in the study were also fitted with pedometers (Draco Tech International, Taiwan) to quantitatively track changes in daily activity during the course of the study. […] The pedometers were fitted onto the collars at the clinic, and owners were instructed on care and maintenance of the pedometers and provided a log book to record the daily pedometer readings. Pedometer readings were recorded on a daily basis starting one week prior to the study and continuing throughout the two-week trial period. The daily pedometer readings recorded throughout an entire week (7-day period) were used to determine the average daily activity during the baseline period (one week prior to the start of the study) and the first and second weeks of the trial. […]

[3] = molecular target: T1, cyclooxygenase-2 (COX-2) (Homo sapiens, UniProt P35354); assay: Inhibition of cyclooxygenase-2 activity
T1 sequence (P35354 18-604): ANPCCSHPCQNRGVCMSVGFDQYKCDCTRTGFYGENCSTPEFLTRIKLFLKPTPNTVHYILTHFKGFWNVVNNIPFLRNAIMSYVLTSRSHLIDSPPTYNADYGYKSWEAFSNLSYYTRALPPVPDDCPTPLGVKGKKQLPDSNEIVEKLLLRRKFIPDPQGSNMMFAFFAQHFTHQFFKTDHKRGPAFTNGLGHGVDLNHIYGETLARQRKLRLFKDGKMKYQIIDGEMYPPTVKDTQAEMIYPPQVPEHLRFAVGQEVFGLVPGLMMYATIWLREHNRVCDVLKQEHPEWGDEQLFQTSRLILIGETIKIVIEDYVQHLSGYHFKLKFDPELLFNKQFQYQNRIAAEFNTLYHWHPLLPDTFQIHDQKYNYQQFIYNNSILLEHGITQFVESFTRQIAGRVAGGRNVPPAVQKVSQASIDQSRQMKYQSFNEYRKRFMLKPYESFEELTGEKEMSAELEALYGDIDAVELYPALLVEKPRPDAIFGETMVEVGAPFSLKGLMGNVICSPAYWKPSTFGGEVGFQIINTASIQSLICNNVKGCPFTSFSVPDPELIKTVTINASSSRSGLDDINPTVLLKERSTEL

[4] = tested on: brain endothelial cells; assay: Release of PGE2 from brain endothelial cells exposed to bacterial endotoxin; assay type: cell-based; details: FIG. 1
Excerpt: The brain endothelial cells were first exposed to bacterial endotoxin.

ethyl (α-guanido-methyl) ethanoate [Alpha-GEE]
PGE2 plasma concentration, post-trial ([1]; mean ± SD after two weeks, pre-trial 268 ± 11): 264 ± 10 pg/mL | difference between pre-trial and post-trial plasma levels of PGE2 ([1]; two-week trial, 36 mg/kg/day): No significant differences; also recorded: no difference | increase in daily pedometer readings (mobility) ([2]; first week versus baseline week, p<0.05 vs placebo): approximately 20% | increase in daily pedometer readings (mobility, physical activity) ([2]; second week versus baseline week, p<0.01 vs placebo): approximately 30% | inhibition of COX-2 activity ([3]; 0.1 μM): about 10% | inhibition of COX-2 activity ([3]; 1 μM (first of three values printed for '1 μM and 100 μM')): about 15% | inhibition of COX-2 activity ([3]; 100 μM (third of three values printed for '1 μM and 100 μM')): about 15% | concentration dependency of inhibition of COX-2 ([3]; 0.1-100 μM, FIG. 2): did not show a concentration dependency | inhibition of COX-2 activity ([3]; concentration not printed (second of three values printed for '1 μM and 100 μM')): about 18% | reduction in the release of PGE2 from brain endothelial cells ([4]; concentration of about 20 μM or more): ≥ 50% | reduction in the release of PGE2 from brain endothelial cells ([4]; concentration of about 1000 μM or more): greater than 50%
